According to patent US5464834A, “N-substituted N'-heterobicyclic piperazines having pharmaceutical activity” (Adir et Compagnie, priority 1992, dated 1995):
Where two headings read alike, the source gives them in different places.

Tests used:
5HT1A receptors [1] = target: T1, 5HT1A receptors (Rattus norvegicus, UniProt P19327); test: Spontaneous tail flick (STF) test, agonist (alone) and antagonist (vs 8-OH-DPAT); assay type: in vivo, rat (male Wistar); design: from tissue; host or cells: whole living male Wistar rats (endogenous receptor)
T1 sequence (P19327 1-422): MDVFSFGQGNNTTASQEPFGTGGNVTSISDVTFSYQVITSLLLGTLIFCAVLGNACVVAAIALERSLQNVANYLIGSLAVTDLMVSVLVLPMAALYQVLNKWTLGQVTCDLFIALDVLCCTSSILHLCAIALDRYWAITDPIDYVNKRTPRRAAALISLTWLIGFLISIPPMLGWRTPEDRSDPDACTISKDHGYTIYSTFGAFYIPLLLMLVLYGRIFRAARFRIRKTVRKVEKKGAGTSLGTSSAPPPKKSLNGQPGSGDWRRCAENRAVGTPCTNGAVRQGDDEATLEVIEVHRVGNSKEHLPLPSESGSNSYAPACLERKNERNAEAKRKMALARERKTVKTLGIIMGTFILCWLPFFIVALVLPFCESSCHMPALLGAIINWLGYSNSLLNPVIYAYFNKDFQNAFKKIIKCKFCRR
Method: (§1) The tests were carried out using male Wistar rats weighing 200 to 220 g having free access to their food and to their drinking water in standard cages.
(§2) The animals are isolated individually for the tests for hypothermia, corticosterone secretion and flat body posture, or combined in groups of three for the tailflick test.
(§3) The compounds to be studied were administered by the subcutaneous route (s.c.) 60 minutes before the beginning of the test, that is to say 30 minutes before the solvent (agonist responses) or the 8-OH-DPAT (antagonist responses).
(§4) In all of the tests the solvent is used in parallel as a control. The animals were left to rest in their cage during the period between the injections and the evaluation. For the agonist studies, the solvent was administered at 1 ml/kg s.c. 30 minutes before the beginning of the test. For the antagonist studies, doses of 8-OH-DPAT that induce sub-maximal responses were chosen, that is doses of 0.63, 0.16, 0.16 and 0.16 mg/kg s.c. for, respectively, the tail flick test, flat body posture test, corticosterone secretion test and hypothermia test.
The tail flicks were determined on the animals in horizontal opaque plastics cylinders with the tail of the animals hanging freely on the edge of the laboratory work bench. After allowing 5 minutes for adaptation, the number of movements made in 5 minutes was recorded. An STF is defined as being an elevation of the tail to a level higher than that of the axis of the body [Millan M. J. et al., J. Pharmacol. Exp. Ther., 256, 973-982 (1990)].
(§5) In general, after variance analysis, the results are subjected to the Dunett test. The results are taken as significant if p <0.05.
(§6) The doses of the compounds tested are all expressed in base terms. Unless specified otherwise, all of the compounds were dissolved in sterile water (to which if necessary a few drops of lactic acid were added) and administered at a volume of 1 ml/kg s.c.

5HT1A receptors [2] = target: T1, 5HT1A receptors; test: Corticosterone secretion (CS), agonist (alone) and antagonist (vs 8-OH-DPAT); assay type: in vivo, rat (male Wistar); design: from tissue; host or cells: whole living male Wistar rats (endogenous receptor); settings: for CS secretion MED alone: agonist test, compound alone s.c., minimum effective dose vs control; for ED50: rat, sc, read-out: CS secretion ID50 (95% CL) + DPAT
Method: as §1, §2, §3, §4
(§7) The same animals were used to evaluate the influence of the compounds studied on FBP and on the determination of the plasma concentration of CS. All of the tests were carried out in the morning between 10.30 and 12.300 that is to say when the circadian levels of CS are lowest.
(§8) The presence of FBP is defined by a characteristic posture of the animal. That posture is in the ventral decubitus position with the posterior limbs clearly extended. 5 minutes after the observation of FBP, the animals are decapitated and the blood from the trunk is collected in cooled tubes containing 50 μl of a 10% EDTA solution. After centrifugation at 4000 revs/min, the plasma is removed and stored at -30° C. until determination.
The CS was determined by a radio-competitive determination for a plasma protein that binds the CS: transcortine. The latter is obtained from a monkey serum. The separation of the CS-transcortine complexes from the free CS was carried out by means of a solution of dextran and active carbon. The detection limit was 50 pg/tube. The intra- and inter-experiment variations in determination were 5 and 15% respectively [cf Rivet J. M. et al, Eur. J. Pharmacol., 183,634-635 (1990)].
The CS base rates in the plasma never being zero, the following formula was used to calculated the percentage inhibition of plasma CS induced by 8-OH-DPAT: [formula]
as §5, §6

5HT1A receptors [3] = target: T1, 5HT1A receptors; test: Body temperature / hypothermia, agonist (alone) and antagonist (vs 8-OH-DPAT); assay type: in vivo, rat (male Wistar); design: from tissue; host or cells: whole living male Wistar rats (endogenous receptor); settings: for ED50: rat, sc, read-out: HYPOTHERMIA ID50 (95% CL) + DPAT
Method: as §1, §2, §3, §4
The rats are immobilised and a lubricated digital thermometer (Termistroprobe of Testotherm, Basle, Switzerland) is inserted into the rectum to a depth of 5 cm. 30 seconds after insertion, the temperature is read on a digital scale. The percentage inhibition is calculated using the formula given above.
as §5, §6

5HT1A receptors [4] = target: T1, 5HT1A receptors; test: Flat body posture (FBP), agonist (alone) and antagonist (vs 8-OH-DPAT); assay type: in vivo, rat (male Wistar); design: from tissue; host or cells: whole living male Wistar rats (endogenous receptor); settings: for ED50: rat, sc
Method: as §1, §2, §3, §4, §7
25 minutes after the treatment (that is to say 5 minutes before decapitation) the animals are observed in their cages and the presence or absence of FBP is noted.
as §8, §5
For the dose-response for the induction and inhibition of FBP, the ED50 values (doses at which 50% of the animals show a response) were calculated by the Litchfield and Wilcoxon method.
as §6

5HT1A receptors [5] = target: T1, 5HT1A receptors; test: In vitro binding test, 5HT1A receptors ([3H]-8-OH-DPAT, hippocampus membranes); design: The hippocampus of the brains of decapitated rats was immediately frozen; from tissue; host or cells: hippocampus membranes of male Wistar rats; species or system rat (male Wistar)
Method: as §1
The hippocampus of the brains of decapitated rats was immediately frozen on solid carbon dioxide and then kept at -80° C. until preparation of the membranes. The tissue was homogenised at 4° C. in the appropriate buffer using a Polytron (Brinkman Instruments, Lucerne, Switzerland) and centrifuged at 20,000 revs/min.
Incubation was carried out for 30 minutes at 25° C. Non-specific binding was established by […] of 5HT. The tests were terminated by rapid filtration using a Brandel harvester through glass fibre filters pretreated with 0.1% polyethylene imine.
The IC50 values were determined in accordance with process 8 of Tallarida R. J. and Murray R. B., Manual of Pharmacological calculations with computer programs, Springer Verlag, New York, (1987).
The pKi was calculated in accordance with the following formula: [formula] wherein [L] is the concentration of the hot ligand (^[3] H-8-OH-DPAT, 0.4 nM) and Kd is the apparent dissociation constant determined from the saturation experiments.
The substances studied were dissolved in the incubation buffer.
Binding of 5HT1A receptors

5HT1A receptor = test: Overall in vivo agonist/antagonist behaviour at 5HT1A receptors; design: species or system rat (male Wistar); settings: Tables 1 and 2
5HT1A receptors [6] = target: T1, 5HT1A receptors; test: Drug discrimination (DD) 8-OH-DPAT; assay type: in vivo, rat (male Wistar); design: from tissue; host or cells: whole living male Wistar rats (endogenous receptor); settings: rat, sc
Method: as §1
Male rats are maintained at 85% of their normal body weight by means of food restriction. In soundproofed chambers the animals are trained to press a pedal to obtain food according to an FR10 procedure (Fixed Ratio 10; the food is supplied to the rat when it has pressed the lever 10 times).
Daily sessions of 15 minutes are preceded by an injection of solvent or of the training drug (0.31 mg/kg of 8-OH-DPAT, j.p.). The animal receives a pellet of food after pressing 10 times on the "solvent" or "drug" pedal according to the compound administered before the session.
After the learning period the animals are tested twice a week (Wednesday and Friday). On the other three days training sessions are carried out.
On the training days the rats are given either solvent or 8-OH-DPAT 15 minutes before being tested.
On the test days the rats receive the chemical substance 60 minutes before the session.
The capacity of the chemical substance administered to induce a response (pressing on the "solvent" or "drug" (8-OH-DPAT ) lever ) is recorded.
7 animals chosen at random are used for each substance and for each dose. During the test period, the lever on which the rat first presses 10 times is determined as the lever chosen--a food pellet is then delivered. That selected lever will be reinforced by the delivery of food up to the end of the test session. The percentage of animals selecting the "drug" lever at a particular dose is calculated. In addition, the total number of responses carried out on the two levers is expressed as a percentage of the number of responses carried out on the "solvent" lever obtained on the occasion of a preceding training session.
as §6

[7] = antagonist test, s.c., vs 8-OH-DPAT 0.16 mg/kg s.c.
[8] = agonist test, compound alone s.c., minimum effective dose vs control
[9] = agonist test, compound alone s.c., read-out: FBP ED50 (95% CL) alone
[10] = antagonist test, s.c., vs 8-OH-DPAT 0.16 mg/kg s.c., read-out: FBP ID50 (95% CL) + DPAT
[11] = rat hippocampus, [3H]-8-OH-DPAT 0.4 nM, 30 min at 25° C, read-out: AFFINITY (pKi) (converted)

Row | Compound | CS secretion MED alone (5HT1A receptors [2]) [mg/kg] | ED50 (5HT1A receptors [2]; [7]) [mg/kg] | HYPOTHERMIA MED alone (5HT1A receptors [3]; [8]) [mg/kg] | ED50 (5HT1A receptors [3]; [7]) [mg/kg] | ED50 (5HT1A receptors [4]; [9]) [mg/kg] | ED50 (5HT1A receptors [4]; [10]) [mg/kg] | Ki (5HT1A receptors [5]; [11]) [nM] | Ki (5HT1A receptors [5]) [nM] | also measured
1 | c1cc2c(c(N3CCN(CC4Cc5ccsc5C4)CC3)c1)OCCO2 (racemic) [Example 3] | > 10.0 | 1.56 | > 2.5 | 0.5 | < 10 | 1.6 | 1.7 |  | ED50 (5HT1A receptors [1]; rat, sc, antagonist test, s.c., vs 8-OH-DPAT 0.63 mg/kg s.c., read-out: STFs ID50 (95% CL) + DPAT): < 0.16 mg/kg; % MPA (% maximum possible antagonism), CS secretion (5HT1A receptors [2]; vs 8-OH-DPAT 0.16 mg/kg s.c.): 100%; % MPA (% maximum possible antagonism), FBP (5HT1A receptors [4]; vs 8-OH-DPAT 0.16 mg/kg s.c.): 100%
2 | c1csc(CCN2CCN(c3cccc4c3OCCO4)CC2)c1 [Example 13, 4-(Benzodioxan-5-yl)-1-[2-(thiophen-2-yl)ethyl]piperazine] |  |  |  |  |  |  |  | 1.1 | 
3 | c1cc2c(c(N3CCN(CCc4cc5ccsc5s4)CC3)c1)OCCO2 [Example 8, 4-(Benzodioxan-5-yl)-1-[2-(thieno[2,3-b]thiophen-2-yl)ethyl]piperazine] |  |  |  |  |  |  |  | 0.589 | 
4 | c1cc2c(c(N3CCN(CCCCc4ccsc4)CC3)c1)OCCO2 [Example 4, 4-(Benzodioxan-5-yl)-1-[4-(thiophen-3-yl)butyl]piperazine] |  |  |  |  |  |  | 0.38 |  | 
5 | c1cc2c(c(N3CCN(CCc4ccsc4)CC3)c1)OCCO2 [Example 11, 4-(Benzodioxan-5-yl)-1-[2-(thiophen-3-yl)ethyl]piperazine] | > 2.5 | 2.5 | > 2.5 | 0.16 | > 2.5 | < 2.5 |  | 1.2 | 
6 | c1cc2c(c(N3CCN(CCc4cccc5ccccc45)CC3)c1)OCCO2 [Example 5, 4-(Benzodioxan-5-yl)-1-[2-(naphth-1-yl)ethyl]piperazine] | > 2.5 | 2.5 | > 10.0 | 0.32 | > 2.5 | < 2.5 | 1.29 |  | 
7 | c1cc2c(c(N3CCN(CCc4ccc5ccccc5c4)CC3)c1)OCCO2 [Example 6, 4-(Benzodioxan-5-yl)-1-[2-(naphth-2-yl)ethyl]piperazine] |  |  |  |  |  |  | 1.02 |  | 
8 | c1cc2c(c(N3CCN(CCc4csc5ccccc45)CC3)c1)OCCO2 [Example 7, 4-(Benzodioxan-5-yl)-1-[2-(benzo[b]thiophen-3-yl)ethyl]piperazine] |  |  |  |  |  |  |  | 0.724 | 
9 | O=C1CC2(CCCC2)CC(=O)N1CCCCN1CCN(c2ncccn2)CC1 [buspirone, reference compound] | 2.5 |  |  |  |  |  |  |  | STFs MED alone (5HT1A receptors [1]; [8]): > 40.0 mg/kg; % MPA (% maximum possible antagonism), STFs (5HT1A receptors [1]; vs 8-OH-DPAT 0.63 mg/kg s.c.): 86%; ED50 (5HT1A receptors [2]): > 10 mg/kg; % MPA (% maximum possible antagonism), CS secretion (5HT1A receptors [2]; vs 8-OH-DPAT 0.16 mg/kg s.c.): 0%; H[…] alone (5HT1A receptors [3]; [8]): 2.5 mg/kg; ED50 (5HT1A receptors [3]): > 10 mg/kg; % MPA (% maximum possible antagonism), HYPOTHERMIA (5HT1A receptors [3]; vs 8-OH-DPAT 0.16 mg/kg s.c.): 0%; ED50 (5HT1A receptors [4]; read-out: FBP ID50 (95% CL) + DPAT): > 10 mg/kg; % MPA (% maximum possible antagonism), FBP (5HT1A receptors [4]; vs 8-OH-DPAT 0.16 mg/kg s.c.): 0%; behaviour at 5HT1A receptor (agonist/antagonist, in words) (5HT1A receptor): agonist behaviour; ED50 (5HT1A receptors [6]; read-out: DD 8-OH-DPAT ED50 (95% CL) alone): 1.35 mg/kg; ED50 (5HT1A receptors [6]; read-out: DD 8-OH-DPAT ID50 (95% CL) + DPAT): > 2.5 mg/kg
10 | c1ccc(CCCN2CCN(c3cccc4c3OCCO4)CC2)cc1 [Example 12, 4-(Benzodioxan-5-yl)-1-(3-phenylpropyl)piperazine] | > 2.5 | 2.5 | > 2.5 | 0.63 | > 2.5 | < 2.5 | 1.7 |  | 
